Patent US20210393623A1 (Jacobio Pharmaceuticals Co., Ltd., priority 2018, published 2021)

target: T1, SHP2 (Homo sapiens, UniProt Q06124); assay: Phosphatase Assay (Single Dose Inhibition); format: biochemical; details: compound at 0.02 μM (20nM); DiFMUP substrate 12 μM; SHP2 0.5 nM activated with dPEG8 peptide; DMSO control set to 100%; triplicate
T1 sequence (Q06124 1-593): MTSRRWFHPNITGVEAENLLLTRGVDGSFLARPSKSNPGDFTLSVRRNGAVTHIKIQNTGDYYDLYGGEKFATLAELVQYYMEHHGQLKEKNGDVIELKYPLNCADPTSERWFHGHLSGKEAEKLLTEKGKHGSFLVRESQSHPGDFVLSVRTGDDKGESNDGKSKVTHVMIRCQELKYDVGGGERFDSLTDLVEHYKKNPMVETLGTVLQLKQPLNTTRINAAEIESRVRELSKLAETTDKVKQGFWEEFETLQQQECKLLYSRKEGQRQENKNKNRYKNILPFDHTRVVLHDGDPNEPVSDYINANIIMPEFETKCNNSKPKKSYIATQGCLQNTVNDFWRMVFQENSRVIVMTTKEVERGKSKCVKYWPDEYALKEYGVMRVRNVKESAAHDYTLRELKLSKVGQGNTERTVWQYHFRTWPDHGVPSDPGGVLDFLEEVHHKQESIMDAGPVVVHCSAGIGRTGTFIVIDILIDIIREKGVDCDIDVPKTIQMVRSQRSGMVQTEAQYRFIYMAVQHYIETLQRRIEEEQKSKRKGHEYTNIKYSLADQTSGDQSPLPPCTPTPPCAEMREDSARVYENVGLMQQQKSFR
Protocol: Phosphatase Assay (Single Dose Inhibition) Assay Protocol: For single dose inhibition assays using 6,8-difluoro-4-methylumbelliferyl phosphate (DiFMUP) as a substrate, SHP2 samples (diluted to 0.5 nM in reaction buffer) were incubated with dPEG8 peptide for 30 min in reaction buffer[60 mM 3,3-dimethyl glutarate (pH7.2), 75 mM NaCl, 75 mM KCl, and 1 mM EDTA, 0.05% Tween 20, 2mM dithiothreitol (DTT) ] to active the PTP. DMSO [0.5% (v/v)] or compounds (20nM) were added to the mixture and incubated for 30 min at room temperature. Reactions were initiated by the addition of DiFMUP (12 μM; total reaction volume of 100 μL), and the fluorescence (excitation at 340 nm, emission at 450 nm) of the resulting solutions was measured on a 2104-0020 EnVision Xcite Multilabel Reader (PerkinElmer) after 30min. The experiment is carried out in triplicate. The value for the control sample (DMSO) was set to 100%, and the values for the compound-treated samples were expressed as activity relative to the control sample.

| inhibition at 0.02 µM | SHP2 inhibition(%) | Compound |
| --- | --- | --- |
| 67% |  | Cc1nc(N2CCC3(CC2)Cc2ncccc2[C@H]3N)c(C#N)nc1-c1cccc(Cl)c1Cl [Example 26, (S)-3-(5-amino-5,7-dihydrospiro[cyclopenta[b]pyridine-6,4′-piperidin]-1′-yl)-6-(2,3-dichlorophenyl)-5-methylpyrazine-2-carbonitrile] |
| 79% |  | Cc1nc(N2CCC3(CC2)Cc2ncccc2[C@H]3N)c(C(N)=O)nc1-c1cccc(Cl)c1Cl [Example 27, (S)-3-(5-amino-5,7-dihydrospiro[cyclopenta[b]pyridine-6,4′-piperidin]-1′-yl)-6-(2,3-dichlorophenyl)-5-methylpyrazine-2-carboxamide] |
| 74% |  | Cc1nc(N2CCC3(CC2)Cc2ncccc2[C@H]3N)c(O)nc1-c1cccc(Cl)c1Cl [Example 28, (S)-3-(5-amino-5,7-dihydrospiro[cyclopenta[b]pyridine-6,4′-piperidin]-1′-yl)-6-(2,3-dichlorophenyl)-5-methylpyrazin-2-ol] |
| 68% |  | Nc1nc(N2CCC3(CC2)Cc2ncccc2[C@H]3N)c(Br)nc1Sc1cccc(Cl)c1Cl [Example 29, (S)-1′-(6-amino-3-bromo-5-((2,3-dichlorophenyl)thio)pyrazin-2-yl)-5,7-dihydrospiro[cyclopenta[b]pyridine-6,4′-piperidin]-5-amine] |
| 80% |  | N#Cc1nc(Sc2cccc(Cl)c2Cl)c(N)nc1N1CCC2(CC1)Cc1ncccc1[C@H]2N [Example 30, (S)-5-amino-3-(5-amino-5,7-dihydrospiro[cyclopenta[b]pyridine-6,4′-piperidin]-1′-yl)-6-((2,3-dichlorophenyl)thio)pyrazine-2-carbonitrile] |
| 82% |  | NC(=O)c1nc(Sc2cccc(Cl)c2Cl)c(N)nc1N1CCC2(CC1)Cc1ncccc1[C@H]2N [Example 31, (S)-5-amino-3-(5-amino-5,7-dihydrospiro[cyclopenta[b]pyridine-6,4′-piperidin]-1′-yl)-6-((2,3-dichlorophenyl)thio)pyrazine-2-carboxamide] |
| 75% |  | Nc1nc(N2CCC3(CC2)Cc2ncccc2[C@H]3N)ccc1Sc1ccnc(N)c1Cl [Example 32, (S)-1′-(6-amino-5-((2-amino-3-chloropyridin-4-yl)thio)pyridin-2-yl)-5,7-dihydrospiro[cyclopenta[b]pyridine-6,4′-piperidin]-5-amine] |
| 70% |  | Nc1nccc(Sc2ccc(N3CCC4(CC3)Cc3ncccc3[C@H]4N)cn2)c1Cl [Example 33, (S)-1′-(6-((2-amino-3-chloropyridin-4-yl)thio)pyridin-3-yl)-5,7-dihydrospiro[cyclopenta[b]pyridine-6,4′-piperidin]-5-amine] |
| 88% |  | Cn1c(N2CCC3(CC2)Cc2ncccc2[C@H]3N)nc2[nH]nc(-c3cccc(Cl)c3Cl)c2c1=O [Example 36, (S)-6-(5-amino-5,7-dihydrospiro[cyclopenta[b]pyridine-6,4′-piperidin]-1′-yl)-3-(2,3-dichlorophenyl)-5-methyl-1,5-dihydro-4H-pyrazolo[3,4-d]pyrimidin-4-one] |
| 68% |  | Cn1c(N2CCC3(CC2)Cc2ccc(F)cc2[C@H]3N)nc2[nH]nc(-c3cccc(Cl)c3Cl)c2c1=O [Example 37, (S)-6-(1-amino-6-fluoro-1,3-dihydrospiro[indene-2,4′-piperidin]-1′-yl)-3-(2,3-dichlorophenyl)-5-methyl-1,5-dihydro-4H-pyrazolo[3,4-d]pyrimidin-4-one] |
| 53% |  | Cc1ccc(-c2n[nH]c3nc(N4CCC5(CC4)Cc4cc(F)c(F)c(F)c4[C@H]5N)n(C)c(=O)c23)s1 [Example 38, (S)-6-(1-amino-5,6,7-trifluoro-1,3-dihydrospiro[indene-2,4′-piperidin]-1′-yl)-5-methyl-3-(5-methylthiophen-2-yl)-1,5-dihydro-4H-pyrazolo[3,4-d]pyrimidin-4-one] |
| 78% |  | N[C@@H]1c2cccnc2CC12CCN(c1nc3[nH]cc(-c4cccc(Cl)c4Cl)c3c(=O)[nH]1)CC2 [Example 39, (S)-2-(5-amino-5,7-dihydrospiro[cyclopenta[b]pyridine-6,4′-piperidin]-1′-yl)-5-(2,3-dichlorophenyl)-3,7-dihydro-4H-pyrrolo[2,3-d]pyrimidin-4-one] |
| 68% |  | Cn1c(N2CCC3(CC2)Cc2ccccc2[C@H]3N)nc(N)c(Sc2ccnc(N)c2Cl)c1=O [Example 40] |
| 78% |  | Cc1cccc(-c2ncc(N3CCC4(CC3)Cc3ccc(Br)cc3[C@H]4N)nc2N)c1Cl [Example 45, (S)-1′-(6-amino-5-(2-chloro-3-methylphenyl)pyrazin-2-yl)-6-bromo-1,3-dihydrospiro[indene-2,4′-piperidin]-1-amine] |
| 56% |  | Cc1cccc(-c2ncc(N3CCC4(CC3)Cc3ccc(N)cc3[C@H]4N)nc2N)c1Cl [Example 47, (S)-1′-(6-amino-5-(2-chloro-3-methylphenyl)pyrazin-2-yl)-1,3-dihydrospiro[indene-2,4′-piperidine]-1,6-diamine] |
| 86% |  | N[C@@H]1c2ccccc2CC12CCN(c1cnc3c(N4CCCc5ncccc54)n[nH]c3n1)CC2 [Example 50, (S)-1′-(3-(3,4-dihydro-1,5-naphthyridin-1(2H)-yl)-1H-pyrazolo[3,4-b]pyrazin-6-yl)-1,3-dihydrospiro[indene-2,4′-piperidin]-1-amine] |
|  | 82% | ethyl (S)-3-(1-amino-1,3-dihydrospiro[indene-2,4′-piperidin]-1′-yl)-6-(2,3-dichlorophenyl)-5--2-carboxylate [Example 1] |
